Data as given in patent publication US20240254135A1, “POLYPHENOL COMPOUNDS” (Epirium Bio Inc., priority 2022, published 2024).

Legend:
[1] = biological target: T1, mitochondrial ATP synthase (Mus musculus, UniProt P56480+Q03265); experiment: ATP hydrolysis (proton release/ECAR, Seahorse XF96) in fresh heart mitochondria; assay type: biochemical; conditions: fresh heart mitochondria (FIG. 1, FIG. 2)
T1 construct: from tissue; host or cells: mouse heart, isolated mitochondria (fresh or frozen)
Text: (§1) To assess whether the fraction of synthetic and reverse hydrolytic activities of mitochondrial ATP synthase can be measured in the same preparation, a protocol was developed to monitor changes in oxygen consumption and proton release in response to changes in mitochondrial ATP synthase activity. The proton released and the concomitant changes in the pH can be monitored using the ECAR (extracellular acidification) channel in the Agilent Seahorse XF analyzer using isolated mitochondria, to ensure that the changes in pH cannot be attributed to glycolysis or other contributors to ECAR.
(§2) Mice were anesthetized with isoflurane followed by a cervical dislocation, and the heart was immediately removed and placed in ice cold relaxation buffer (5 mM sodium pyrophosphate, 100 mM KCl, 5 mM EGTA, 5 mM HEPES; pH 7.4). The heart was squeezed with tweezers to remove blood, minced with scissors, and then placed in a glass-glass Dounce homogenizer with 3 mL of HES homogenization buffer (250 mM sucrose, 5 mM HEPES, 1 mM EDTA; pH to 7.2, adjusted with KOH). The heart tissue was homogenized first with the loose pestle and followed by the tight pestle. The homogenized tissue was placed in a pre-chilled 15 ml conical tube and centrifuged at 900×g (4° C.) for 10 minutes (min). The supernatant was removed, placed in a new tube and centrifuged again at 900×g for 10 min. The supernatant was then transferred to 2 mL microcentrifuge tubes and centrifuged at 10,000×g (4° C.) for 10 min. The mitochondrial pellets were re-suspended in ice cold HES buffer and mitochondrial protein was measured with a BCA assay (Pierce). The concentrated mitochondrial pellet was stored on ice.
Heart mitochondria (0.75-1.5 μg) were loaded into a Seahorse XF96 microplate in 20 μL of MAS (70 mM Sucrose, 220 mM Mannitol, 5 mM KH2PO4, 5 mM MgCl2, 1 mM EGTA, 2 mM HEPES; pH 7.2) plus 1% free fatty acid BSA containing substrates. The loaded plate was centrifuged at 2,000×g for 5 min at 4° C. (no brake) and an additional 130 μL of MAS was added to each well. When assessing compounds effect on respirometry, the compounds were added at this point at the indicated concentration in MAS buffer. To avoid disrupting mitochondrial adherence to the bottom of the plate, MAS was added using a multichannel pipette pointed at a 45° angle to the top of the well-chamber, as instructed by the manufacturer. Substrate concentrations in the well when assay was starting in state 4 were as follow: (i) 5 mM pyruvate+5 mM malate or ii) 5 mM succinate+2 μM rotenone. Substrate concentrations in the well when assay was starting in state 3 were as follow: (i) 5 mM pyruvate+5 mM malate+4 mM ADP or ii) 5 mM succinate+2 μM rotenone+4 mM ADP. Injections were performed as indicated in the figure descriptions at the following final concentration in the well: oligomycin (3.5 μM), FCCP (4 μM), Antimycin A (2 μM). Compounds were added at the indicated concentration.
ATP hydrolysis capacity or state 4 acidification was measured using Seahorse XF96 as described in Divakaruni et al. (2018) Anal Biochem 552:60-65 and Acin-Perez et al. (2021) Life 11(9):949, in MAS (70 mM Sucrose, 220 mM Mannitol, 5 mM KH2PO4, 5 mM MgCl2, 1 mM EGTA, 2 mM HEPES; pH 7.2). Plates were loaded with 0.75-1.5 μg of mouse heart mitochondria, or 25 μg of cell lysate. Cell lysates were prepared by subjecting the samples to 4 cycles of free thaw (liquid nitrogen—37° C. water bath) before measuring protein concentration. When assessing compounds effect on respirometry, the compounds were added in MAS after sample centrifugation. Initial respiration of the samples was sustained by the addition of 5 mM succinate+2 μM rotenone in the MAS after centrifugation. Injections were performed at the following final concentration in the well: Antimycin A (2 μM), oligomycin (5 μM), FCCP (1 μM), ATP (20 mM). To assess maximal ATP concentration, ATP was injected consecutively. […]

[2] = biological target: T1, mitochondrial ATP synthase; experiment: Maximal ATP hydrolysis capacity in frozen heart mitochondria; assay type: biochemical; conditions: frozen heart mitochondria, different concentrations in the assay media
Description: ATP hydrolysis capacity or state 4 acidification was measured using Seahorse XF96 as described in Divakaruni et al. (2018) Anal Biochem 552:60-65 and Acin-Perez et al. (2021) Life 11(9):949, in MAS (70 mM Sucrose, 220 mM Mannitol, 5 mM KH2PO4, 5 mM MgCl2, 1 mM EGTA, 2 mM HEPES; pH 7.2). Plates were loaded with 0.75-1.5 μg of mouse heart mitochondria, or 25 μg of cell lysate. Cell lysates were prepared by subjecting the samples to 4 cycles of free thaw (liquid nitrogen—37° C. water bath) before measuring protein concentration. When assessing compounds effect on respirometry, the compounds were added in MAS after sample centrifugation. Initial respiration of the samples was sustained by the addition of 5 mM succinate+2 μM rotenone in the MAS after centrifugation. Injections were performed at the following final concentration in the well: Antimycin A (2 μM), oligomycin (5 μM), FCCP (1 μM), ATP (20 mM). To assess maximal ATP concentration, ATP was injected consecutively.
An additional assay was developed to determine the maximal ATP hydrolysis capacity in frozen mitochondria. Maximal ATP hydrolytic capacity was assessed in frozen heart mitochondria where mitochondrial respiration is inhibited by Antimycin A and maximal ATP hydrolysis is driven by co-injection of FCCP and ATP, followed by inhibition in the presence of oligomycin.

[3] = biological target: T1, mitochondrial ATP synthase; experiment: ATP synthesis (oxygen consumption, Seahorse XF96) in fresh heart mitochondria; assay type: biochemical; conditions: fresh heart mitochondria (FIG. 1, FIG. 2)
Text: as §1, §2
Heart mitochondria (0.75-1.5 μg) were loaded into a Seahorse XF96 microplate in 20 μL of MAS (70 mM Sucrose, 220 mM Mannitol, 5 mM KH2PO4, 5 mM MgCl2, 1 mM EGTA, 2 mM HEPES; pH 7.2) plus 1% free fatty acid BSA containing substrates. The loaded plate was centrifuged at 2,000×g for 5 min at 4° C. […]
Oxygen consumption was measured in isolated fresh intact mitochondria from mouse heart, as oxygen consumption is linked to maximal ATP synthesis and proton release when mitochondria are respiring either in the presence of substrates and ADP (ATP synthesizing mitochondria or state 3) or in the presence of substrates but not ADP (state 4). […]
OCR and ECAR were measured in a Seahorse XF96 analyzer under basal conditions as well as after injection of 2 μM oligomycin, two sequential additions of 1.5 μM FCCP, followed by 1 μM rotenone with 2 μM antimycin A. Respiratory parameters were calculated according to standard protocols, and all rates were corrected for non-mitochondrial respiration/background signal by subtracting the oxygen consumption rate insensitive to rotenone plus antimycin A.

[4] = system: PGC-1α; experiment: In vitro PGC-1α expression in differentiated C2C12 cells (cell ELISA); assay type: cell-based; conditions: 1 mM
Description: Culture conditions: DMEM containing 25 mM glucose with 10% FBS supplementation; grown at 37° C. and 5% CO2.
Drugs: (+)Epicatechin, AICAR (direct activator of AMPK).
Assay Conditions: C2C12 cells were cultured in DMEM supplemented in 10% FBS up to 80% confluence. The cells were further trypsinized and seeded into a 96 well plate at a density of 5000 cells/well (well volume—100 μL) (Day 0). Following attachment, the cells were allowed to reach 80-90% confluence in the plate (typically 48 hours post seeding) and further differentiated using DMEM+2% Horse Serum (200 μL/well). The media was changed every day or at least every alternate day for 5 days to allow myoblasts to differentiate into myotubes. On day 7 (post seeding), the cells were treated with standards and test compounds for PGC-1 α assay.
PGC-1α assay: For the detection of PGC-1α, the cells were incubated with 0.5 μg/ml primary antibody (Merck, WH0010891M3) in PBS-T containing 5% BSA at 4° C. overnight. The cells were then washed three times with PBS-T for 5 minutes and incubated with 1:1000 dilution secondary antibody (Anti-rabbit IgG, HRP-linked Antibody, Cell Signaling) in PBS-T with 1% BSA for 1 hour at RT. Cells were washed three times with PBS-T for 5 minutes The cells were incubated with 100 μl TMB substrate solution for 30 minutes and the reaction was stopped with 100 μl of 2N H2SO4. […] (For plate optical density calculations, a background correction was taken at 540 nm). The final PGC-1α activation % is average of activation of 6 replicates.

SMILES	changes in ATP hydrolysis [1]	inhibition of ATP hydrolysis [2]	change in ATP synthesis [3]	% Activity (PGC-1α expression) ([4]; Table 4, differentiated C2C12 cells, OD at 5 minutes) [%]	% Activity (PGC-1α expression) ([4]; Table 5, differentiated C2C12, 5000 cells/well, DMSO = 100) [%]	% Activity (PGC-1α expression) ([4]; Table 6, C2C12 cells, 5000 cells/well) [%]	% Activity (PGC-1α expression) ([4]; Table 7, C2C12 cells, 5000 cells/well, DMSO = 100) [%]	% Activity (PGC-1α expression) ([4]; Table 8, C2C12 cells, 5000 cells/well, DMSO = 100) [%]
CC[C@H]1/C=C/C=C/C[C@@H](C)[C@H](O)[C@@](C)(O)C(=O)[C@@H](C)[C@H](O)[C@@H](C)C(=O)[C@@H](C)[C@H](O)[C@@H](C)/C=C/C(=O)O[C@@H]2[C@H](C)[C@H](CC1)O[C@]1(CC[C@H](C)[C@H](C[C@@H](C)O)O1)[C@H]2C [Oligomycin, oligomycin, reference compound]	worked as expected	dose dependent inhibition	worked as expected					
NC(=O)c1ncn([C@@H]2O[C@H](CO)[C@@H](O)[C@H]2O)c1N [AICAR, 5-aminoimidazole-4-carboxamide-1-β-D-ribofuranoside]				128	122	136	122	140
